# In the NIST ThermoML archive (doi:10.1016/j.fluid.2007.01.042):
# Numbers after ± are expanded uncertainties.
# Details: Liquid, Ebulliometric method (Recirculating still)
smiles,measurement,setting,value
C1CCCCC1 [cyclohexane],vapor or sublimation pressure,325.65 K,40 ± 0.04 kPa
same,vapor or sublimation pressure,333.77 K,53.33 ± 0.04 kPa
same,vapor or sublimation pressure,340.43 K,66.66 ± 0.05 kPa
same,vapor or sublimation pressure,346.11 K,79.99 ± 0.06 kPa
same,vapor or sublimation pressure,351.12 K,93.32 ± 0.06 kPa
"Cc1cccc(C)c1 [1,3-dimethylbenzene]",vapor or sublimation pressure,380.51 K,40 ± 0.09 kPa
same,vapor or sublimation pressure,389.66 K,53.33 ± 0.11 kPa
same,vapor or sublimation pressure,397.13 K,66.66 ± 0.14 kPa
same,vapor or sublimation pressure,403.51 K,79.99 ± 0.17 kPa
same,vapor or sublimation pressure,409.09 K,93.32 ± 0.19 kPa
c1ccccc1 [benzene],vapor or sublimation pressure,325.6 K,40 ± 0.04 kPa
same,vapor or sublimation pressure,333.56 K,53.33 ± 0.04 kPa
same,vapor or sublimation pressure,340.06 K,66.66 ± 0.05 kPa
same,vapor or sublimation pressure,345.61 K,79.99 ± 0.06 kPa
same,vapor or sublimation pressure,350.5 K,93.32 ± 0.06 kPa
Cc1ccccc1Cl [2-chlorotoluene],vapor or sublimation pressure,398.81 K,40 ± 0.05 kPa
same,vapor or sublimation pressure,408.41 K,53.33 ± 0.06 kPa
same,vapor or sublimation pressure,416.25 K,66.66 ± 0.08 kPa
same,vapor or sublimation pressure,422.91 K,79.99 ± 0.09 kPa
same,vapor or sublimation pressure,428.76 K,93.32 ± 0.11 kPa
CC1CCCCC1 [methylcyclohexane],vapor or sublimation pressure,344.18 K,40 ± 0.09 kPa
same,vapor or sublimation pressure,352.8 K,53.33 ± 0.11 kPa
same,vapor or sublimation pressure,359.85 K,66.66 ± 0.14 kPa
same,vapor or sublimation pressure,365.87 K,79.99 ± 0.17 kPa
same,vapor or sublimation pressure,371.15 K,93.32 ± 0.19 kPa
ClC(Cl)(Cl)Cl [tetrachloromethane],vapor or sublimation pressure,322.04 K,40 ± 0.04 kPa
same,vapor or sublimation pressure,330.08 K,53.33 ± 0.04 kPa
same,vapor or sublimation pressure,336.65 K,66.66 ± 0.05 kPa
same,vapor or sublimation pressure,342.21 K,79.99 ± 0.06 kPa
same,vapor or sublimation pressure,347.09 K,93.32 ± 0.06 kPa
CCOC(C)=O [ethyl acetate],vapor or sublimation pressure,324.44 K,40 ± 0.04 kPa
same,vapor or sublimation pressure,331.9 K,53.33 ± 0.05 kPa
same,vapor or sublimation pressure,337.99 K,66.66 ± 0.06 kPa
same,vapor or sublimation pressure,343.18 K,79.99 ± 0.07 kPa
same,vapor or sublimation pressure,347.7 K,93.32 ± 0.08 kPa
CCc1ccccc1 [ethylbenzene],vapor or sublimation pressure,377.54 K,40 ± 0.09 kPa
same,vapor or sublimation pressure,386.69 K,53.33 ± 0.11 kPa
same,vapor or sublimation pressure,394.14 K,66.66 ± 0.14 kPa
same,vapor or sublimation pressure,400.51 K,79.99 ± 0.17 kPa
same,vapor or sublimation pressure,406.12 K,93.32 ± 0.19 kPa
Cc1ccc(Cl)cc1 [4-chlorotoluene],vapor or sublimation pressure,401.71 K,40 ± 0.09 kPa
same,vapor or sublimation pressure,411.34 K,53.33 ± 0.11 kPa
same,vapor or sublimation pressure,419.2 K,66.66 ± 0.14 kPa
same,vapor or sublimation pressure,425.9 K,79.99 ± 0.17 kPa
same,vapor or sublimation pressure,431.77 K,93.32 ± 0.19 kPa
CCCCCCC [heptane],vapor or sublimation pressure,342.77 K,40 ± 0.05 kPa
same,vapor or sublimation pressure,351.08 K,53.33 ± 0.07 kPa
same,vapor or sublimation pressure,357.85 K,66.66 ± 0.08 kPa
same,vapor or sublimation pressure,363.64 K,79.99 ± 0.1 kPa
same,vapor or sublimation pressure,368.7 K,93.32 ± 0.11 kPa
